# Assays:
# [1] = system: corn; assay: Example 8, Procedure II: Herbicide No. 1 + butachlor (No. 9) with antidotes; format: in vivo
# Method: (§1) Containers were filled and compacted with a fumigated silt loam top soil to a depth of about 1.3 cm from the top of the container. A first container was designated as an untreated control, a second container was designated as a herbicide control, and a third container was designated as a herbicide + antidote test container. Each of the containers was seeded with a crop species. A measured amount of herbicide dispersed or dissolved in acetone was applied to a measured quantity of soil. To this same quantity of soil treated with herbicide, there was added a measured amount of antidote dispersed or dissolved in acetone. The quantity of soil treated with the herbicide and antidote was thoroughly mixed to incorporate the herbicide and antidote in the soil uniformly. The seed bed in the third container of soil was covered with the soil treated with the herbicide and antidote and the container was leveled. For each test series, the seed beds of the first and second containers were likewise covered by soil layers. the cover layer of the first container was not treated with herbicide or antidote.
# (§2) The containers were then placed on a bench in a greenhouse and sub-irrigated as required for the duration of the test. […] Plant response is measured in terms of percent injury. Antidote efficacy is indicated as the difference in plant injury by the herbicide(s) without the antidote and with the antidote.
# (§3) This procedure is the same as Procedure I, but modified in the manner that after incorporation of the chemicals (herbicide and antidote) the containers with the covered seedbed were treated with an initial overhead irrigation equivalent to 0.6 cm rainfall, then subsequently sub-irrigated as required on greenhouse benches.
# (§4) In this test, the efficacy of the same five antidotes used in Examples 6 and 7 was investigated in compositions comprising Herbicide No. 1 and as a co-herbicide, butachlor (Herbicide No. 9), active ingredient in MACHETE® herbicide, a leading commercial rice herbicide. The test procedure used in this example was the same as that in Examples 6 and 7.
# [2] = system: barnyardgrass (Echinochloa crusgalli); assay: as above; format: in vivo
# Method: as §1, §2, §3
# (§5) In the series of greenhouse tests described below, for routine screening purposes the herbicide/antidote compositions were tested in crop/weed combinations involving corn as the crop and either or both of the weeds barnyardgrass (Echinochloa crusgalli), a monocotyledonous weed, and velvetleaf (Abutilon theophrasti), a dicotyledonous weed. In the tables below, these weeds are indicated by the symbols "BYG" and "VL", respectively.
# as §4
# [3] = system: velvetleaf (Abutilon theophrasti); assay: as above; format: in vivo
# Method: as §1, §2, §3, §5, §4
# [4] = system: corn; assay: Example 25, greenhouse preemergence test: Antidote Nos. 1 and 2 against Herbicide Nos. 1-3; format: in vivo, Corn (Pioneer 3424 variety); details: Preemergence
# Method: The chemicals were tested in both preemergence and post-emergence modes of application. The herbicides were prepared and applied as wettable powders; dichlormid was applied as an emulsifiable concentrate, while the naphthalic anhydride was applied as a coating on the corn seed prior to planting.
# Test data from the preemergence tests are shown in Table 25A and from the post-emergence tests in Table 25B. In the tables, the concentration of chemicals is shown in terms of active ingredient in grams per hectare (G/ha); concentrations of the naphthalic anhydride were not measured per se, but were present as in conventional, normally-coated applications. Corn injury is shown in terms of percent inhibition of growth.
# [5] = system: velvetleaf (Abutilon theophrasti); assay: Example 23, Procedure II: Antidote Nos. 15 and 17-21 against Herbicide No. 1, 13 days after application; format: in vivo
# Method: as §1, §2, §3
# (§6) In other greenhouse tests, using Procedure II described above, the safening efficacy of Antidote Nos. 15 and 17-21 was evaluated against Herbicide No. 1 in corn in the presence of Giant foxtail (Setaria fabergi) and Velvetleaf (Abutilon theophrasti) as representative annual monocotyledonous and dicotyledonous weeds, respectively.
# (§7) Test results are shown in Tables 23A and 23B wherein the indicated plant inhibition represents the average of duplicate replications, with observations being made thirteen (13) days after application of the chemicals. Giant foxtail and Velvetleaf are represented by the symbols "GFT" and "VL", respectively. The data in Table 23A show the test results using the antidotes at 2.24 kg/ha, whereas in Table 23B, the antidotal rate was reduced to 0.56 kg/ha.
# [6] = system: corn; assay: as above; format: in vivo; details: 13 days after application
# Method: as §1, §2, §3, §6, §7
# [7] = system: Giant foxtail (Setaria fabergi); assay: as above; format: in vivo
# Method: as §1, §2, §3, §6, §7
# [8] = Herbicide No.1 0.14 + No.9 2.24 kg/ha + antidote 2.24 kg/ha
# [9] = Herbicide No.1 0.14 + No.9 2.24 kg/ha + antidote 8.96 kg/ha
# [10] = Herbicide No.1 0.56 + No.9 2.24 kg/ha + antidote 2.24 kg/ha
# [11] = Herbicide No.1 0.56 + No.9 2.24 kg/ha + antidote 8.96 kg/ha
# [12] = Table 23A, Herb. No. 1 0.14 Kg/Ha + antidote 2.24 Kg/ha
# [13] = Table 23A, Herb. No. 1 0.28 Kg/Ha + antidote 2.24 Kg/ha
# [14] = Table 23A, Herb. No. 1 0.56 Kg/Ha + antidote 2.24 Kg/ha
# [15] = Table 23A, Herb. No. 1 1.12 Kg/Ha + antidote 2.24 Kg/ha
# [16] = Table 23B, Herb. No. 1 0.14 Kg/Ha + antidote 0.56 Kg/ha
# [17] = Table 23B, Herb. No. 1 0.28 Kg/Ha + antidote 0.56 Kg/ha
# [18] = Table 23B, Herb. No. 1 0.56 Kg/Ha + antidote 0.56 Kg/ha
# [19] = Table 23B, Herb. No. 1 1.12 Kg/Ha + antidote 0.56 Kg/ha
compound,measurement,setting,value
O=C1OC(=O)c2cccc3cccc1c23 [compound 2],% Injury Corn,[1]; [8],15%
same,% Injury Corn,[1]; [9],15%
same,% Injury Corn,[1]; [10],25%
same,% Injury Corn,[1]; [11],20%
same,% Injury BYG,[2]; [8],99%
same,% Injury BYG,[2]; [9],99%
same,% Injury BYG,[2]; [10],99%
same,% Injury BYG,[2]; [11],98%
same,% Injury VL,[3]; [8],70%
same,% Injury VL,[3]; [9],75%
same,% Injury VL,[3]; [10],90%
same,% Injury VL,[3]; [11],80%
same,% Inhibition Corn,[4]; Herbicide No. 1 0.25 G/ha + antidote as seed treatment (concentration not measured),18.2%
same,% Inhibition Corn,[4]; Herbicide No. 1 0.74 G/ha + antidote as seed treatment (concentration not measured),31.2%
same,% Inhibition Corn,[4]; Herbicide No. 2 0.25 G/ha + antidote as seed treatment (concentration not measured),31.5%
same,% Inhibition Corn,[4]; Herbicide No. 2 0.74 G/ha + antidote as seed treatment (concentration not measured),18.9%
same,% Inhibition Corn,[4]; Herbicide No. 2 2.5 G/ha + antidote as seed treatment (concentration not measured),31.9%
same,% Inhibition Corn,[4]; Herbicide No. 3 0.07 G/ha + antidote as seed treatment (concentration not measured),13.2%
same,% Inhibition Corn,[4]; Herbicide No. 3 0.25 G/ha + antidote as seed treatment (concentration not measured),29.3%
same,% Inhibition Corn,[4]; Herbicide No. 3 0.74 G/ha + antidote as seed treatment (concentration not measured),46.9%
same,% Inhibition Corn,"[4]; antidote alone as seed treatment (concentration not measured), no herbicide",17.4%
O=C(C(Cl)Cl)N1CCOC12CCCCC2 [compound 7],% Injury Corn,[1]; [8],5%
same,% Injury Corn,[1]; [9],10%
same,% Injury Corn,[1]; [10],25%
same,% Injury Corn,[1]; [11],20%
same,% Injury BYG,[2]; [8],97%
same,% Injury BYG,[2]; [9],99%
same,% Injury BYG,[2]; [10],99%
same,% Injury BYG,[2]; [11],99%
same,% Injury VL,[3]; [8],70%
same,% Injury VL,[3]; [9],65%
same,% Injury VL,[3]; [10],75%
same,% Injury VL,[3]; [11],65%
CC1COc2ccccc2N1C(=O)C(Cl)Cl (stereo not drawn) [compound 17],% Inhibition VL,[5]; [12],95%
same,% Inhibition VL,[5]; [13],85%
same,% Inhibition VL,[5]; [14],95%
same,% Inhibition VL,[5]; [15],95%
same,% Inhibition VL,[5]; [16],90%
same,% Inhibition VL,[5]; [17],90%
same,% Inhibition VL,[5]; [18],90%
same,% Inhibition VL,[5]; [19],95%
same,% Inhibition Corn,[6]; [12],0%
same,% Inhibition Corn,[6]; [13],0%
same,% Inhibition Corn,[6]; [14],15%
same,% Inhibition Corn,[6]; [15],25%
same,% Inhibition Corn,[6]; [16],0%
same,% Inhibition Corn,[6]; [17],10%
same,% Inhibition Corn,[6]; [18],20%
same,% Inhibition Corn,[6]; [19],30%
same,% Inhibition GFT,[7]; [12],25%
same,% Inhibition GFT,[7]; [13],25%
same,% Inhibition GFT,[7]; [14],60%
same,% Inhibition GFT,[7]; [15],70%
same,% Inhibition GFT,[7]; [16],15%
same,% Inhibition GFT,[7]; [17],40%
same,% Inhibition GFT,[7]; [18],55%
same,% Inhibition GFT,[7]; [19],65%

# — EP0603240B1, “SAFENING HERBICIDAL PYRAZOLYLSULFONYLUREAS” (priority 1991, dated 1993)
